Measured values published in the METLIN SMRT retention time set (Domingo-Almenara et al. 2019).

assay: gradient 5% acetonitrile 3 min, to 50% in 2 min, to 85% in 15 min, held 3 min, 100 µL/min; conditions: column: Zorbax Extend-C18 2.1 x 50 mm; eluents: water / acetonitrile, 0.1% formic acid
In short: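 Pure standards were run in mixtures of ~100 molecules by HPLC coupled to a quadrupole time-of-flight mass spectrometer. The column was a Zorbax Extend-C18 (2.1 × 50 mm, 1.8 μm) at 100 μL/min, with water and acetonitrile each containing 0.1% formic acid, in positive and negative ionization mode. Dead and dwell volumes were 40 μL and 900 μL. Retention time was taken from computationally picked adduct peaks, each manually inspected, with data collected over 3 months.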

Q: With `O=[N+]([O-])c1ccc(CSc2ccc(-c3ccccn3)nn2)cc1` as the molecule, how does the RP-LC retention time read?
A: The RP-LC retention time was 893 s.

Q: For `CCOc1nc2ccccc2nc1N1CCCC(C(=O)NCc2ccco2)C1` (stereo not given), which RP-LC retention time is on record?
A: The RP-LC retention time was 1020 s.

Q: Which RP-LC retention time does the source give for `Cc1ccc(-c2nnc(N3CCC(C(=O)NCCC4=CCCCC4)CC3)o2)cc1` here?
A: The RP-LC retention time was 990 s.

Q: With `Cc1cc(Cl)ccc1NC(=O)N1CCC(n2cnnc2C2CC2)C1` (stereo not given) as the molecule, how does the RP-LC retention time read?
A: Its RP-LC retention time is 661 s.

Q: With `NC(=O)C1CCN(C(=O)CCn2ccn3nc(-c4ccccc4)cc3c2=O)CC1` as the molecule, how does the RP-LC retention time read?
A: The RP-LC retention time was 638 s.

Q: For `CS(=O)(=O)N(Cc1cccnc1)C1CN(C(=O)c2ccc3ccccc3n2)C1`, which RP-LC retention time is on record?
A: Its RP-LC retention time is 615 s.

Q: With `COCCNC(=O)NC1CCN(c2nc3cccnc3n(Cc3ccccc3)c2=O)CC1` as the molecule, how does the RP-LC retention time read?
A: Its RP-LC retention time is 806 s.

Q: With `O=c1n(Cc2cccc(Cl)c2)nc2c(S(=O)(=O)N3CCCC3)cccn12` as the molecule, how does the RP-LC retention time read?
A: Its RP-LC retention time is 882 s.

Q: For `Cc1ccccc1-c1noc(-c2cccn(CC(=O)NC3CCCC3)c2=O)n1`, which RP-LC retention time is on record?
A: Its RP-LC retention time is 832 s.

Q: For `O=S(=O)(c1cccn2c(SCc3ccccc3Cl)nnc12)N1CCCC1`, which RP-LC retention time is on record?
A: The RP-LC retention time was 880 s.

Q: For `CCc1ccc(CNc2nc3ccccc3n2CCN(CC)CC)cc1`, which RP-LC retention time is on record?
A: The RP-LC retention time was 558 s.

Q: Which RP-LC retention time does the source give for `COc1ccc(-c2nnc(-c3cc(S(=O)(=O)N4CCCCC4)ccc3Cl)o2)cc1` here?
A: The RP-LC retention time was 1150 s.

Q: For `COc1ccc(S(=O)(=O)N2CCc3nn(CC4CC4)c(=O)n3CC2)cc1`, which RP-LC retention time is on record?
A: The RP-LC retention time was 744 s.

Q: Which RP-LC retention time does the source give for `Cc1ccc(NS(=O)(=O)c2ccc3c(c2)C(=O)N(C)c2ncccc2O3)cc1` here?
A: Its RP-LC retention time is 914 s.

Q: Which RP-LC retention time does the source give for `CCCn1cc(S(=O)(=O)Nc2ccc(OC)c(OC)c2)c2cccnc21` here?
A: The RP-LC retention time was 876 s.

Q: For `CCOCCCNC(=O)c1c(-c2cccc(Br)c2)noc1C`, which RP-LC retention time is on record?
A: The RP-LC retention time was 869 s.

Q: With `CC(C)NC(=O)N1CCCC(c2cccc(C(=O)NCCN3CCCC3)c2)C1` (stereo not given) as the molecule, how does the RP-LC retention time read?
A: Its RP-LC retention time is 862 s.

Q: With `O=C(CCCCCCSc1ccc2ccccc2c1)NO` as the molecule, how does the RP-LC retention time read?
A: The RP-LC retention time was 863 s.

Q: For `C=CCN1CCN(c2nc3cc(C(=O)OC)ccc3c(=O)n2-c2ccc(Cl)cc2)CC1`, which RP-LC retention time is on record?
A: The RP-LC retention time was 681 s.

Q: Which RP-LC retention time does the source give for `CCOC(=O)Cc1nnc(-c2cc(OC)cc(OC)c2)o1` here?
A: The RP-LC retention time was 836 s.

Q: With `CC(C)C(=O)N1CCc2c(c(C(=O)N3CCC(C(=O)NCc4ccc(F)cc4)CC3)nn2C)C1` as the molecule, how does the RP-LC retention time read?
A: Its RP-LC retention time is 675 s.

Q: For `COc1ccccc1NC(=O)N1CCN(c2cnn3c(C)nnc3c2)CC1`, which RP-LC retention time is on record?
A: Its RP-LC retention time is 605 s.

Q: Which RP-LC retention time does the source give for `Cc1cc(Nc2nc3ccncc3n(Cc3ccccc3)c2=O)ccc1Cl` here?
A: Its RP-LC retention time is 747 s.

Q: With `Cc1nn(CC(=O)NCc2ccco2)c(=O)c2nc(-c3ccccc3)sc12` as the molecule, how does the RP-LC retention time read?
A: The RP-LC retention time was 782 s.

Q: For `CC1CCN(c2cc(-n3cnc(C(=O)NCc4ccco4)c3)ncn2)CC1`, which RP-LC retention time is on record?
A: Its RP-LC retention time is 678 s.

Q: With `O=S(=O)(c1ccccc1F)N1CCC(OCc2noc(C3CCCO3)n2)CC1` (stereo not given) as the molecule, how does the RP-LC retention time read?
A: Its RP-LC retention time is 865 s.

Q: Which RP-LC retention time does the source give for `Cc1ccc(C2Cn3nnc(-c4nc(-c5ccc(F)c(F)c5)no4)c3CO2)c(C)c1` (stereo not given) here?
A: Its RP-LC retention time is 1230 s.

Q: With `COC(=O)C1=CN(c2ccc(N(C)C)cc2)c2ccccc2S1(=O)=O` as the molecule, how does the RP-LC retention time read?
A: The RP-LC retention time was 883 s.

Q: For `O=C(c1cocn1)N1CC(F)(F)C[C@H]1c1nnc(-c2ccccc2)o1`, which RP-LC retention time is on record?
A: The RP-LC retention time was 761 s.

Q: With `Cc1cc(Cl)ccc1OCc1nc(-c2ccc(NS(C)(=O)=O)cc2)no1` as the molecule, how does the RP-LC retention time read?
A: Its RP-LC retention time is 1060 s.

Q: With `O=c1ccn(-c2ccccc2)nc1-c1nc(-c2ccccn2)no1` as the molecule, how does the RP-LC retention time read?
A: Its RP-LC retention time is 685 s.

Q: Which RP-LC retention time does the source give for `COc1ccc(N2CCN(C(=O)c3cc(S(=O)(=O)N4CCC(C)CC4)cn3C)CC2)cc1` here?
A: The RP-LC retention time was 923 s.

Q: For `COc1ccc(-n2nc(C(=O)N3CCCCC3c3cccnc3)c(=O)n(C)c2=O)cc1` (stereo not given), which RP-LC retention time is on record?
A: The RP-LC retention time was 638 s.

Q: With `Cc1csc(-c2cc(S(=O)(=O)NCc3ccccc3Cl)c(C)s2)n1` as the molecule, how does the RP-LC retention time read?
A: Its RP-LC retention time is 1050 s.

Q: Which RP-LC retention time does the source give for `CCc1noc(NC(C)=O)c1-c1ccc(OC)c(S(=O)(=O)Nc2ccc(Cl)cc2F)c1` here?
A: Its RP-LC retention time is 842 s.

Q: For `O=C(Nc1ccc(F)cc1)C1CC(=O)N(CCc2c[nH]c3ccc(Cl)cc23)C1` (stereo not given), which RP-LC retention time is on record?
A: The RP-LC retention time was 871 s.

Q: With `CCCN1CCN(C(=O)CSCc2nc3cccnc3n2C2CCCCC2)CC1` as the molecule, how does the RP-LC retention time read?
A: Its RP-LC retention time is 638 s.

Q: Which RP-LC retention time does the source give for `Cn1cc(CCN2CCC(C(=O)NCc3cccc(Cl)c3)CC2)c2cccnc21` here?
A: Its RP-LC retention time is 630 s.

Q: With `CCn1cccc1-c1nc(C)c(C(=O)N2CCN(c3cccc(C)c3)C(C)C2)s1` (stereo not given) as the molecule, how does the RP-LC retention time read?
A: The RP-LC retention time was 1190 s.

Q: For `COCCCNC(=O)C1CCCN(c2nnc(C)c3c(C)n(-c4ccc(OC)cc4)nc23)C1` (stereo not given), which RP-LC retention time is on record?
A: Its RP-LC retention time is 633 s.

Q: For `O=C(c1cccc(F)c1)N1CCC(n2c(-c3ccoc3)nc3cccnc32)C1` (stereo not given), which RP-LC retention time is on record?
A: Its RP-LC retention time is 735 s.

Q: With `Cc1ccc(-c2ccc(-n3nc(C)c(S(=O)(=O)NCc4ccccc4)c3C)nn2)cc1` as the molecule, how does the RP-LC retention time read?
A: Its RP-LC retention time is 1090 s.

Q: With `CC(NC(=O)C(=O)N1CCCCC1)C(c1cccs1)N1CCN(c2ccc(F)cc2)CC1` (stereo not given) as the molecule, how does the RP-LC retention time read?
A: Its RP-LC retention time is 760 s.

Q: Which RP-LC retention time does the source give for `CC1CCNC2C1NC(=O)C1CCCNC1N2C1CC1` (stereo not given) here?
A: The RP-LC retention time was 679 s.

Q: For `O=C(C1CCN(c2cnn(Cc3ccccc3)c(=O)c2)CC1)N1CCOCC1`, which RP-LC retention time is on record?
A: The RP-LC retention time was 661 s.
